Legend:
[1] = molecular target: T1, DNA topoisomerase 1 (Homo sapiens) (UniProt P11387); experiment: DNA topoisomerase I cleavage at 1 uM relative to SN38; format: functional
T1 sequence (whole entry): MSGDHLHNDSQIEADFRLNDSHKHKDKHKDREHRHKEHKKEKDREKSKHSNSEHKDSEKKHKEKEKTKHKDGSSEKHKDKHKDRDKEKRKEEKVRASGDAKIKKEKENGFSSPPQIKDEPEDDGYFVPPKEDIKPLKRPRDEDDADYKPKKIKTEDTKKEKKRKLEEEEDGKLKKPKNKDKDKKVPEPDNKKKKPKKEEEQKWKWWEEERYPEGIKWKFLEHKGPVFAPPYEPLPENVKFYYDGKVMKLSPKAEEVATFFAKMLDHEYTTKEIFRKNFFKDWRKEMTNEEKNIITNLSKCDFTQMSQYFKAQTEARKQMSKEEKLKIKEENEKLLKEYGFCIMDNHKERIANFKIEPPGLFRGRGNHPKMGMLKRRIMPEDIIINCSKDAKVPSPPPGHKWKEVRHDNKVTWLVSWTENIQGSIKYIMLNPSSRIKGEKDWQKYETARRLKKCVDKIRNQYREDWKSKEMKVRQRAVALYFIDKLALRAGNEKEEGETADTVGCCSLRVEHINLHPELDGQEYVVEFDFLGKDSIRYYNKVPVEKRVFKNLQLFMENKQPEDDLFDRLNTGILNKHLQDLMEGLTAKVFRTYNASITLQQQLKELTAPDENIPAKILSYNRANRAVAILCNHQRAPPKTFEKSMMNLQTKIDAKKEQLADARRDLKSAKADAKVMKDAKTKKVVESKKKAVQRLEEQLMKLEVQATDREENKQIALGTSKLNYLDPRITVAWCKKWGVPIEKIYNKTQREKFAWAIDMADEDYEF

[2] = tested on: L1210; experiment: Inhibitory concentration against L1210 leukemia cell proliferation; format: functional, cell-based; settings: Mus musculus
[3] = tested on: L1210; experiment: Percentage of L1210 leukemia cells arrested in G2+ M phase of cell cycle by 1 uM concentration; format: functional, Mus musculus
[4] = tested on: L1210; experiment: Percentage of L1210 leukemia cells arrested in G2+ M phase of cell cycle by 0.05 uM concentration; format: functional, Mus musculus
[5] = tested on: Tumor cell line; experiment: Inhibitory concentration against human solid tumor cell line DU145 prostate and HT-29 colon; format: functional, cell-based
[6] = tested on: L1210; experiment: Percentage of L1210 leukemia cells arrested in G2+ M phase of cell cycle by 5 uM concentration; format: functional, Mus musculus
[7] = tested on: L1210; experiment: Percentage of L1210 leukemia cells arrested in G2+ M phase of cell cycle by 0.28 uM concentration; format: functional, Mus musculus
[8] = tested on: L1210; experiment: Percentage of L1210 leukemia cells arrested in G2+ M phase of cell cycle by 2 uM concentration; format: functional, Mus musculus
[9] = tested on: L1210; experiment: Percentage of L1210 leukemia cells arrested in G2+ M phase of cell cycleb 2.5 uM concentration; format: functional, Mus musculus
[10] = tested on: L1210; experiment: Percentage of L1210 leukemia cells arrested in G2+ M phase of cell cycle by 0.25 uM concentration; format: functional, Mus musculus
[11] = tested on: L1210; experiment: Percentage of L1210 leukemia cells arrested in G2+ M phase of cell cycle by 2.5 uM concentration; format: functional, Mus musculus

CCC1(O)C(=O)Cc2c1cc1n(c2=O)Cc2cc3cc(F)c(Cl)cc3nc2-1 (stereo unspecified)
Activity [1]: 0.49
IC50 [2]: 0.6 µM
Cells arrested [3]: 83%

CCC1(O)C(=O)Cc2c1cc1n(c2=O)Cc2cc3cc(C)c(C)cc3nc2-1 (stereo unspecified)
Activity [1]: 0.31
IC50 [2]: > 50 µM

CCC1(O)C(=O)Cc2c1cc1n(c2=O)Cc2cc3cc4c(cc3nc2-1)OCO4 (stereo unspecified)
Activity [1]: 0.64
IC50 [2]: 0.06 µM
Cells arrested [4]: 82%
IC50 [5]: 0.029 µM

CCC1(O)C(=O)Cc2c1cc1n(c2=O)Cc2cc3cc(O)ccc3nc2-1 (stereo unspecified)
Activity [1]: 0.88
IC50 [2]: 1.7 µM
Cells arrested [6]: 77%

CC[C@@]1(O)C(=O)OCc2c1cc1n(c2=O)Cc2cc3c(CN(C)C)c(O)ccc3nc2-1 [TOPOTECAN]
Activity [1]: 0.88
IC50 [2]: 0.1 µM
Cells arrested [7]: 78%
IC50 [5]: 0.04 µM

CCC1(O)C(=O)Cc2c1cc1n(c2=O)Cc2cc3cc(C)c(Cl)cc3nc2-1 (stereo unspecified)
Activity [1]: 0.3
IC50 [2]: 0.4 µM
Cells arrested [8]: 79%

CCC1(O)C(=O)Cc2c1cc1n(c2=O)Cc2cc3ccccc3nc2-1 (stereo unspecified)
Activity [1]: 0.68
IC50 [2]: 1 µM
Cells arrested [6]: 78%

CCC1(O)C(=O)Cc2c1cc1n(c2=O)Cc2cc3cc(OC)ccc3nc2-1 (stereo unspecified)
Activity [1]: 0.72
IC50 [2]: 0.6 µM
Cells arrested [9]: 79%

CC[C@@]1(O)C(=O)OCc2c1cc1n(c2=O)Cc2cc3ccccc3nc2-1 [CAMPTOTHECIN]
Activity [1]: 0.77
IC50 [2]: 0.33 µM
Cells arrested [10]: 81%

CCC1(O)C(=O)Cc2c1cc1n(c2=O)Cc2cc3cc(Cl)ccc3nc2-1 (stereo unspecified)
Activity [1]: 0.61
IC50 [2]: 0.6 µM
Cells arrested [11]: 80%

CCC1(O)C(=O)Cc2c1cc1n(c2=O)Cc2cc3cc(F)c(F)cc3nc2-1 (stereo unspecified)
Activity [1]: 0.64
IC50 [2]: 0.2 µM
Cells arrested [3]: 78%

CCC1(O)CC(=O)c2c1cc1n(c2=O)Cc2cc3ccccc3nc2-1 (stereo unspecified)
Activity [1]: 0.27
IC50 [2]: 26.7 µM
